Assay results as given in patent US20240002425A1, “NOVEL AMINOALKYL GLUCOSAMINIDE 4-PHOSPHATE DERIVATIVE” (DAIICHI SANKYO COMPANY, LIMITED, priority 2020, published 2024).
Read-outs that look alike come from different tables or passages of the source.

Biological target: human TLR4 (Homo sapiens, UniProt O00206+Q9Y6Y9)
Test: Human TLR4 activating effect (HEK-Blue Human TLR4 Cells, SEAP reporter)
Assay type: cell-based
Settings: 24 hours, SEAP Protein concentration
Method: The human TLR4 activating effect was studied using the compounds described in Examples 1 to 17 and monophosphoryl lipid A as Comparative Example A.
Triethanolamine was dissolved at 0.5% (v/v) in injectable distilled water to prepare an aqueous triethanolamine solution. 1 mg of each test drug was dissolved in 0.98 mL of the aqueous triethanolamine solution, and pH of the solution was then adjusted to 7.2 to 7.4 by the addition of 20 μL of 1 M HCl to prepare a 1 mg/mL solution. A dilution series of the test drug was prepared using a medium [DMEM (Nacalai Tesque, Inc.), 10% FBS (Sigma-Aldrich Co. LLC), 50 U/mL penicillin-50 μg/mL streptomycin (Thermo Fisher Scientific Inc.), 1×HEK-Blue Selection (InvivoGen), and 100 μg/mL Normocin (InvivoGen)]. 2×10^5 cells/mL HEK-Blue™ Human TLR4 Cells (InvivoGen) were inoculated to each well of a 96-well microplate for tissue culture (Iwaki), then treated with the test drug, and cultured at 37° C. for 24 hours under 5% CO2. The cells thus cultured were centrifuged at 400×g at 4° C. for 3 minutes. Recombinant SEAP Protein (InvivoGen) was used for a calibration curve. After addition of 180 μL of QUANTI-Blue (InvivoGen) to each well of 96 Well TC-Treated Microplates (Corning, Inc.), 20 μL each of the cell culture supernatant and a standard diluting solution was added to each well, and the plate was left standing at 37° C. for 4 hours. After reaction, absorbance (wavelength: 655 nm) was measured using a microplate reader (PerkinElmer, Inc., EnSpire), and a SEAP Protein concentration was calculated from the calibration curve and used as an index for TLR4 agonist activity. A drug concentration that induced reaction corresponding to 50% of the maximum reaction was calculated as EC50 (ng/mL) from a linear expression using two drug concentrations between which the drug concentration that induced reaction corresponding to 50% of the maximum reaction in each experiment was positioned, and measured values thereof.

[1] = read-out: EC50 (ng/ml) (converted)

human TLR4, sequence (O00206 24-839): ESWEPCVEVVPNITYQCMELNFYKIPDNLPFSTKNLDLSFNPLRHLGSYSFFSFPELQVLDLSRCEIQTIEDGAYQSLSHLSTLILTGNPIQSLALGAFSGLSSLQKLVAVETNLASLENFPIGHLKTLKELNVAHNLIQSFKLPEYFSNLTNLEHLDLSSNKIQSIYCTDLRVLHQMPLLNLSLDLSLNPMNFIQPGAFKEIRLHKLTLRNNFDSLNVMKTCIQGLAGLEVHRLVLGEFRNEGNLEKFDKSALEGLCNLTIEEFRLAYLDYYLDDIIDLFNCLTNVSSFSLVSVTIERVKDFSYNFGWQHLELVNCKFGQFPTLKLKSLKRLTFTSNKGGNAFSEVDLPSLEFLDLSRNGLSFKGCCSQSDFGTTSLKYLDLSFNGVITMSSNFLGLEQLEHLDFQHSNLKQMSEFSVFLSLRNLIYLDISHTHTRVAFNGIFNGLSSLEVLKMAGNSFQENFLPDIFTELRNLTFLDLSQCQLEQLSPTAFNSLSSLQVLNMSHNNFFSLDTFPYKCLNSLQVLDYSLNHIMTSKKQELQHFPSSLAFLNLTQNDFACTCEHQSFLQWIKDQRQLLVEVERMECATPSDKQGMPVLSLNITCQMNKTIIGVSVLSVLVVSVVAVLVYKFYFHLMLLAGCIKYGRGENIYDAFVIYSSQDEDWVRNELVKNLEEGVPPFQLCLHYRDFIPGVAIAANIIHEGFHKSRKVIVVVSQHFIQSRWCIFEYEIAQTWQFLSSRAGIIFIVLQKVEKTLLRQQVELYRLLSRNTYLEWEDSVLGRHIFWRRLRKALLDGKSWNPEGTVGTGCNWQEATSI
human TLR4, sequence (Q9Y6Y9 17-160 limits assumed): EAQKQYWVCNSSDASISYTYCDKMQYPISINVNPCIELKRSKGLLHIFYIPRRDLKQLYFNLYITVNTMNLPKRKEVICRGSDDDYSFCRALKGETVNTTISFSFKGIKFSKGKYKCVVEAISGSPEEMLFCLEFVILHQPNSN

Compound: monophosphoryl lipid A [Comparative Example A, reference compound]
- EC50: >0.01 µg/mL

Compound: CCCCCCCCCCC[C@H](CC(=O)NC1C(CC[C@@H](CC(=O)O)NC(=O)C[C@@H](CCCCCCCCCCC)OC(=O)CCCCCCCCC)OC(CO)C(OP(=O)(O)O)C1OC(=O)C[C@@H](CCCCCCCCCCC)OC(=O)CCCCCCCCC)OC(=O)CCCCCCCCC (stereo partly drawn) [Example 10(10r), Ammonium 6,10-anhydro-8-O-[(3R)-3-(decanoyloxy)tetradecanoyl]-3,7-bis{[(3R)-3-(decanoyloxy)tetradecanoyl]amino}-2,3,4,5,7-pentadeoxy-9-O-phosphono-D-erythro-L-galacto-undecanoate]
- EC50 [1]: 0.667 nM

Compound: CCCCCCCCCCC[C@H](CC(=O)NC1C(CC[C@@H](CC(=O)O)NC(=O)C[C@@H](CCCCCCCCCCC)OC(=O)CCCCCCCCC)OC(COC2(C(=O)O)CC(OC3(C(=O)O)CC(O)C(O)C([C@H](O)CO)O3)C(O)C([C@H](O)CO)O2)C(OP(=O)(O)O)C1OC(=O)C[C@@H](CCCCCCCCCCC)OC(=O)CCCCCCCCC)OC(=O)CCCCCCCCC (stereo partly drawn) [Example 12(12d), Ammonium 3-deoxy-α-D-manno-oct-2-ulopyranonosyl-(2-+4)-3-deoxy-α-D-manno-oct-2-ulopyranonosyl-(2-+11)-6,10-anhydro-8-O-[(3R)-3-(decanoyloxy)tetradecanoyl]-3,7-bis{[(3R)-3-(decanoyloxy)tetradecanoyl]amino}-2,3,4,5,7-pentadeoxy-9-O-phosphono-D-erythro-L-galacto-undecanoate]
- EC50 [1]: 0.67 nM

Compound: CCCCCCCCCCC[C@H](CC(=O)NC1C(CC[C@H](NC(=O)C[C@@H](CCCCCCCCCCC)OC(=O)CCCCCCCCC)C(=O)O)OC(COC2(C(=O)O)CC(O)C(O)C([C@H](O)CO)O2)C(OP(=O)(O)O)C1OC(=O)C[C@@H](CCCCCCCCCCC)OC(=O)CCCCCCCCC)OC(=O)CCCCCCCCC (stereo partly drawn) [Example 14(14d), Ammonium 5,9-anhydro-7-O-[(3R)-3-(decanoyloxy)tetradecanoyl]-2,6-bis{[(3R)-3-(decanoyloxy)tetradecanoyl]amino}-2,3,4,6-tetradeoxy-10-O-(3-deoxy-α-D-manno-oct-2-ulopyranonosyl)-8-O-phosphono-D-erythro-L-galacto-decanoate]
- EC50 [1]: 0.188 nM

Compound: CCCCCCCCCCC[C@H](CC(=O)NC1C(CC[C@H](NC(=O)C[C@@H](CCCCCCCCCCC)OCCCCCCCCCC)C(=O)O)OC(CO)C(OP(=O)(O)O)C1OC(=O)C[C@@H](CCCCCCCCCCC)OCCCCCCCCCC)OCCCCCCCCCC (stereo partly drawn) [Example 17(17h), Ammonium 5,9-anhydro-7-O-[(3R)-3-(decyloxy)tetradecanoyl]-2,6-bis{[(3R)-3-(decyloxy)tetradecanoyl]amino}-2,3,4,6-tetradeoxy-8-O-phosphono-D-erythro-L-galacto-decanoate]
- EC50 [1]: 0.969 nM

Compound: CCCCCCCCCCC[C@H](CC(=O)NC1C(OC[C@@H](CC(=O)O)NC(=O)C[C@@H](CCCCCCCCCCC)OC(=O)CCCCCCCCC)OC(COC2(C(=O)O)CC(OC3(C(=O)O)CC(O)C(O)C([C@H](O)CO)O3)C(O)C([C@H](O)CO)O2)C(OP(=O)(O)O)C1OC(=O)C[C@@H](CCCCCCCCCCC)OC(=O)CCCCCCCCC)OC(=O)CCCCCCCCC (stereo partly drawn) [Example 3(3d), Ammonium (3R)-3-{[(3R)-3-(decanoyloxy)tetradecanoyl]amino}-4-{[3-deoxy-α-D-manno-oct-2-ulopyranonosyl-(2-+4)-3-deoxy-α-D-manno-oct-2-ulopyranonosyl-(2-+6)-3-O-[(3R)-3-(decanoyloxy)tetradecanoyl]-2-{[(3R)-3-(decanoyloxy)tetradecanoyl]amino}-2-deoxy-4-O-phosphono-β-D-glucopyranosyl]oxy}butanoate]
- EC50 [1]: 0.422 nM

Compound: CCCCCCCCCCC[C@H](CC(=O)N[C@@H](CO[C@@H]1O[C@H](CO)[C@@H](OP(=O)(O)O)[C@H](OC(=O)C[C@@H](CCCCCCCCCCC)OC(=O)CCCCCCCCC)[C@H]1NC(=O)C[C@@H](CCCCCCCCCCC)OC(=O)CCCCCCCCC)CC(=O)O)OC(=O)CCCCCCCCC [Example 1(1k), Bisammonium (3R)-3-{[(3R)-3-(decanoyloxy)tetradecanoyl]amino}-4-({3-O-[(3R)-3-(decanoyloxy)tetradecanoyl]-2-{[(3R)-3-(decanoyloxy)tetradecanoyl]amino}-2-deoxy-4-O-phosphono-β-D-glucopyranosyl}oxy)butanoate]
- EC50 [1]: 0.612 nM

Compound: CCCCCCCCCCC[C@H](CC(=O)NC1C(CC[C@H](NC(=O)C[C@@H](CCCCCCCCCCC)OC(=O)CCCCCCCCC)C(=O)O)OC(COC2(C(=O)O)CC(OC3(C(=O)O)CC(O)C(O)C([C@H](O)CO)O3)C(O)C([C@H](O)CO)O2)C(OP(=O)(O)O)C1OC(=O)C[C@@H](CCCCCCCCCCC)OC(=O)CCCCCCCCC)OC(=O)CCCCCCCCC (stereo partly drawn) [Example 15(15d), Ammonium 3-deoxy-α-D-manno-oct-2-ulopyranonosyl-(2-+4)-3-deoxy-α-D-manno-oct-2-ulopyranonosyl-(2-+10)-5,9-anhydro-7-O-[(3R)-3-(decanoyloxy)tetradecanoyl]-2,6-bis{[(3R)-3-(decanoyloxy)tetradecanoyl]amino}-2,3,4,6-tetradeoxy-8-O-phosphono-D-erythro-L-galacto-decanoate]
- EC50 [1]: 0.4 nM

Compound: CCCCCCCCCCC[C@H](CC(=O)N[C@H]1[C@H](OC[C@H](NC(=O)C[C@@H](CCCCCCCCCCC)OC(=O)CCCCCCCCC)C(=O)O)O[C@H](CO[C@@H]2O[C@H](COP(=O)(O)O)[C@@H](O)[C@H](O)[C@H]2NC(C)=O)[C@@H](OP(=O)(O)O)[C@@H]1OC(=O)C[C@@H](CCCCCCCCCCC)OC(=O)CCCCCCCCC)OC(=O)CCCCCCCCC [Example 9(9e), Ammonium (2S)-3-({6-O-[2-acetamido-2-deoxy-6-O-(hydroxyphosphinato)-β-D-glucopyranosyl]-3-O-[(3R)-3-(decanoyloxy)tetradecanoyl]-2-{[(3R)-3-(decanoyloxy)tetradecanoyl]amino}-2-deoxy-4-O-phosphono-β-D-glucopyranosyl}oxy)-2-{[(3R)-3-(decanoyloxy)tetradecanoyl]amino}propanoate]
- EC50 [1]: 0.288 nM

Compound: CCCCCCCCCCC[C@H](CC(=O)N[C@H]1[C@H](OC[C@H](NC(=O)C[C@@H](CCCCCCCCCCC)OC(=O)CCCCCCCCC)C(=O)O)O[C@H](CO[C@@H]2O[C@H](CO)[C@@H](O)[C@H](O)[C@H]2NC(C)=O)[C@@H](OP(=O)(O)O)[C@@H]1OC(=O)C[C@@H](CCCCCCCCCCC)OC(=O)CCCCCCCCC)OC(=O)CCCCCCCCC [Example 7(7c), Ammonium (2S)-3-{[6-O-(2-acetamido-2-deoxy-β-D-glucopyranosyl)-3-O-[(3R)-3-(decanoyloxy)tetradecanoyl]-2-{[(3R)-3-(decanoyloxy)tetradecanoyl]amino}-2-deoxy-4-O-phosphono-β-D-glucopyranosyl]oxy}-2-{[(3R)-3-(decanoyloxy)tetradecanoyl]amino}propanoate]
- EC50 [1]: 0.396 nM

Compound: CCCCCCCCCCC[C@H](CC(=O)NC1C(CC[C@H](NC(=O)C[C@@H](CCCCCCCCCCC)OC(=O)CCCCCCCCC)C(=O)O)OC(CO)C(OP(=O)(O)O)C1OC(=O)C[C@@H](CCCCCCCCCCC)OC(=O)CCCCCCCCC)OC(=O)CCCCCCCCC (stereo partly drawn) [Example 13(130), Ammonium 5,9-anhydro-7-O-[(3R)-3-(decanoyloxy)tetradecanoyl]-2,6-bis{[(3R)-3-(decanoyloxy)tetradecanoyl]amino}-2,3,4,6-tetradeoxy-8-O-phosphono-D-erythro-L-galacto-decanoate]
- EC50 [1]: 1.61 nM

Compound: CCCCCCCCCCC[C@H](CC(=O)N[C@H]1[C@H](OC[C@H](NC(=O)C[C@@H](CCCCCCCCCCC)OC(=O)CCCCCCCCC)C(=O)O)O[C@H](CO[C@@H]2O[C@H](CO)[C@@H](OP(=O)(O)O)[C@H](O)[C@H]2NC(C)=O)[C@@H](OP(=O)(O)O)[C@@H]1OC(=O)C[C@@H](CCCCCCCCCCC)OC(=O)CCCCCCCCC)OC(=O)CCCCCCCCC [Example 8(8f), Ammonium (2S)-3-({6-O-[2-acetamido-2-deoxy-4-O-(hydroxyphosphinato)-β-D-glucopyranosyl]-3-O-[(3R)-3-(decanoyloxy)tetradecanoyl]-2-{[(3R)-3-(decanoyloxy)tetradecanoyl]amino}-2-deoxy-4-O-phosphono-β-D-glucopyranosyl}oxy)-2-{[(3R)-3-(decanoyloxy)tetradecanoyl]amino}propanoate]
- EC50 [1]: 0.35 nM

Compound: CCCCCCCCCCC[C@H](CC(=O)NC1C(OC[C@H](NC(=O)C[C@@H](CCCCCCCCCCC)OC(=O)CCCCCCCCC)C(=O)O)OC(COC2OC(C(=O)O)C(O)C(O)C2O)C(OP(=O)(O)O)C1OC(=O)C[C@@H](CCCCCCCCCCC)OC(=O)CCCCCCCCC)OC(=O)CCCCCCCCC (stereo partly drawn) [Example 6(6b), Ammonium (2S)-2-{[(3R)-3-(decanoyloxy)tetradecanoyl]amino}-3-({3-O-[(3R)-3-(decanoyloxy)tetradecanoyl]-2-{[(3R)-3-(decanoyloxy)tetradecanoyl]amino}-2-deoxy-6-β-D-glucopyranuronosyl-4-O-phosphono-β-D-glucopyranosyl}oxy)propanoate]
- EC50 [1]: 0.0661 nM
